Assay results from patent US20130197032A1, “[…] COMPOUNDS FOR THE TREATMENT OF NEUROLOGICAL AND […] DISORDERS” (A. CARLSSON RESEARCH AB, priority 2010, published 2013).
Several values for one entry are separate records, joined by “and”; a condition that tells them apart may be missing. Equal values may be shown once. Read-outs that look alike come from different tables or passages of the source.

Experiments:
D2 receptors [1] = biological target: T1, D2 receptors (Homo sapiens, UniProt P14416); test: R-SAT functional assay at D2; type: cell-based; design: expressed in transfected cells; host or cells: NIH-3T3
D2 receptors [2] = biological target: T1, D2 receptors; test: GTPγS binding assay at D2; type: biochemical; design: expressed in transfected cells
Experimental: Cells were not centrifuged following cell scraping, but were collected directly into the ice-cold nitrogen cavitation chamber.
50 μl/well Wheat-Germ Agglutinin SPA beads (Perkin Elmer, Shelton, Conn.) were added to the plates and the plates incubated for 1 hour. The plates were then centrifuged at 1,000×g for 10 minutes and read on a Top Count NXT (Perkin Elmer, Shelton, Conn.).
To relate the results observed in R-SAT™ to a more conventional assay system, these ligands were also tested for the ability to induce GTPγS binding through D2 receptors.

D2 receptors [3] = biological target: T1, D2 receptors; test: BRET2 beta-arrestin-2 recruitment assay at D2; type: cell-based; design: expressed in transfected cells; host or cells: HEK-293T
Experimental: (§1) BRET-2 signals were measured using the multiplate reader Mithras 940LB (Berthold Technologies, Bad Wildbad, Germany) and were calculated as the ratio between the Renilla luciferase emission and the GFP2 emission corrected by the background emissions of non-transfected cells.
Each curve is representative of two to three independent experiments.

human 5-HT2A receptors [4] = biological target: T2, human 5-HT2A receptors (Homo sapiens, UniProt P28223); test: R-SAT functional assay at 5-HT2A; type: cell-based; design: expressed in transfected cells; host or cells: NIH-3T3; conditions: for EC50: read-out: R-SAT pEC50 (converted)
human 5-HT2A receptors [5] = biological target: T2, human 5-HT2A receptors; test: Phosphatidyl inositol (PI) hydrolysis assay at 5-HT2A; type: cell-based; design: expressed in transfected cells
Experimental: After lysing the cells with 50 μl of 0.1M formic acid, 20 μl each cell lysate was mixed with 80 μl (1 mg) RNA Binding YSi-SPA beads (GE Healthcare, Chalfont St. Giles, UK) on PICO plates (PerkinElmer) and counted on a TopCount (Packard).
Each curve is representative of at least three or more independent experiments.

human 5-HT2A receptors [6] = biological target: T2, human 5-HT2A receptors; test: BRET2 beta-arrestin-2 recruitment assay at 5-HT2A; type: cell-based; design: expressed in transfected cells; host or cells: HEK-293T
Experimental: as §1

[7] = system: reserpine-pretreated mice; test: Motor activity in monoamine-depleted (reserpine-pretreated) mice, video tracking; conditions: for antagonism of motor stimulation induced by (+)-OSU6162 250 μmol/kg ip / antagonism of motor stimulation induced by (−)-OSU6162 250 μmol/kg ip: haloperidol 1 mg/kg ip, raclopride 20 mg/kg sc, M100907 1 mg/kg ip, SCH23390 0.3 mg/kg sc, SCH39166 0.1-0.9 mg/kg sc
habituated rats = test: Locomotion in habituated rats, photocell activity boxes; conditions: habituated rats
Experimental: Motor activity experiments in both active and habituated rats were performed on male Sprague-Dawley rats (Charles River, Germany) weighing 280-320 g. Prior to testing, rats were housed in groups of four or five in ventilated Macrolon type IV cages for approximately one week.
Rats were housed in a normal daylight cycle and the experiments were carried out during daytime. […] During the following 5 minutes test drugs were injected, after which the rats were returned to the boxes for another 60 minutes. Five by five rows of photocell beams at floor level allowed a computer based-system to register horizontal activity. Motor activity is presented as accumulated number of unrepeated beam breaks, i.e. several consecutive breakings of one beam is counted as one beam break. The software was set to register behavior from the rats' first introduction into the arena until it was finally removed from the box, i.e. for 110 or 130 minutes.
Locomotion was measured as accumulated unrepeated beam breaks. […] This was followed by 60 minutes of registration. Data are calculated from a 30 minutes period, 5-35 minutes after injection, and plotted as means and SEM. […] Data were calculated from a 30 minutes period, 5-35 minutes after injection.
The effect of haloperidol on the locomotor stimulation was also studied in habituated rats (see FIG. 10). Locomotion was measured as accumulated unrepeated beam breaks. Rats were given haloperidol (0.05, 0.2, 0.5 mg/kg, sc) and were then allowed to habituate for 65 minutes. […] Data are calculated from a 30 minutes period, taken 5-35 minutes after injection, and plotted as means and SEM. N=4-5.

human H1 receptor = biological target: T3, human H1 receptor (Homo sapiens, UniProt P35367); test: R-SAT assay H1; type: cell-based; conditions: Table 3, H1; percent response of reference Histamine
T3 construct: expressed in transfected cells; host or cells: NIH/3T3

human 5-HT1E receptor = biological target: T4, human 5-HT1E receptor (Homo sapiens, UniProt P28566); test: R-SAT assay 5-HT1E; type: cell-based; conditions: Table 3, 5-HT1E
T4 construct: expressed in transfected cells; host or cells: NIH/3T3

human 5-HT1F receptor = biological target: T5, human 5-HT1F receptor (Homo sapiens, UniProt P30939); test: R-SAT assay 5-HT1F; type: cell-based; conditions: Table 3, 5-HT1F
T5 construct: expressed in transfected cells; host or cells: NIH/3T3
T5 sequence (P30939 1-366): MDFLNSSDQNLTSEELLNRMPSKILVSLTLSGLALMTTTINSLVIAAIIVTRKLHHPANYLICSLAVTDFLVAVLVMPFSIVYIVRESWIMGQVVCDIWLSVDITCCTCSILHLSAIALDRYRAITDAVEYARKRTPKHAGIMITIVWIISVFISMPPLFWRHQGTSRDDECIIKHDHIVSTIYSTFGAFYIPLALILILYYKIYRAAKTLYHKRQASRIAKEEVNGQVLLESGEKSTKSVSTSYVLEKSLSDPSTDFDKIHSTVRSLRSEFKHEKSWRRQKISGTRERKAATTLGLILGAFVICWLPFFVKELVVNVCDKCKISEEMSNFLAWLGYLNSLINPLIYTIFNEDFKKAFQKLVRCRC

drug naive mice = test: Head twitch induction in mice; type: in vivo; conditions: DOI 1 mg/kg ip, OSU6162 enantiomers 9.375-300 μmol/kg ip, 10 min before registration
Experimental: The animals used in the head twitch experiments were individually placed in Macrolon type II cages and allowed to habituate to these test cages during 30 minutes before the video registration of behavior began. […] The animals were videotaped for 10 minutes; the behavior was scored during the first 5 minutes. The number of head twitches was counted from the videotapes by a person blind to the treatment.
In FIG. 5, the number of head twitches produced during 5 minutes is shown. The mice were habituated to the test cages during 30 minutes before the video registration of behavior began. […] Shown are means and SEM, n=6-12.

[8] = percent response of reference ligand dopamine, mean ± SEM
[9] = Table 2, percent response of reference ligand pergolide, mean ± SEM
[10] = Table 1, negative logarithm of EC50 in molar (M), NIH3T3 cells, mean ± SEM
[11] = percent response of reference ligand 5-HT, mean ± SEM
[12] = haloperidol 0.05, 0.2 and 0.5 mg/kg sc
[13] = negative logarithm of EC50 in molar (M), HEK 293T cells, mean ± SEM
[14] = negative logarithm of EC50 in molar
[15] = percent response of reference BRL 54443
[16] = reserpine-pretreated mice, M100907 0.1 and 1 mg/kg ip 30 minutes prior

T1 sequence (P14416 1-414 isoform P14416-2): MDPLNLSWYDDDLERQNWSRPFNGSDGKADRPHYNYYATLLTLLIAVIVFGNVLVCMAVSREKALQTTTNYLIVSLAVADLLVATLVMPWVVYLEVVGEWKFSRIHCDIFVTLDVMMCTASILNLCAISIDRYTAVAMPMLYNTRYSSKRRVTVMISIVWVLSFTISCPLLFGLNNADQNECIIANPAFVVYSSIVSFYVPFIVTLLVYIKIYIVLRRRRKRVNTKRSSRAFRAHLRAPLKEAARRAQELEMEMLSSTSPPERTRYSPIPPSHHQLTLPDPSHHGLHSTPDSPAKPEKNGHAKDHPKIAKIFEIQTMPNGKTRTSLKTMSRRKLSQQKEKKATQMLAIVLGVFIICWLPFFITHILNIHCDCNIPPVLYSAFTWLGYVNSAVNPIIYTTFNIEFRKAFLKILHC
T2 sequence (P28223 whole entry): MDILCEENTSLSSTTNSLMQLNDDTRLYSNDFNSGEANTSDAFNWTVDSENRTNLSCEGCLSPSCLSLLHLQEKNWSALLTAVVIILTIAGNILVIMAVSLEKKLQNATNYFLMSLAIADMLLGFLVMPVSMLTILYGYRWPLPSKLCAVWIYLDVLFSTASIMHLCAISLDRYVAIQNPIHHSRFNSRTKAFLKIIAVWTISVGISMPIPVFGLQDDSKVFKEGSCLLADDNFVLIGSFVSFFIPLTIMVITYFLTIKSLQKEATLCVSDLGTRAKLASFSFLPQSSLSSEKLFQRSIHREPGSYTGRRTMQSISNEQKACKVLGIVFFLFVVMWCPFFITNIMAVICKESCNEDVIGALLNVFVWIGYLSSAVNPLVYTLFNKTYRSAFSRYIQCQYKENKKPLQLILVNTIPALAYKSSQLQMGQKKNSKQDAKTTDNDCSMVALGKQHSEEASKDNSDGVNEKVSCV
T4 sequence (P28566 whole entry): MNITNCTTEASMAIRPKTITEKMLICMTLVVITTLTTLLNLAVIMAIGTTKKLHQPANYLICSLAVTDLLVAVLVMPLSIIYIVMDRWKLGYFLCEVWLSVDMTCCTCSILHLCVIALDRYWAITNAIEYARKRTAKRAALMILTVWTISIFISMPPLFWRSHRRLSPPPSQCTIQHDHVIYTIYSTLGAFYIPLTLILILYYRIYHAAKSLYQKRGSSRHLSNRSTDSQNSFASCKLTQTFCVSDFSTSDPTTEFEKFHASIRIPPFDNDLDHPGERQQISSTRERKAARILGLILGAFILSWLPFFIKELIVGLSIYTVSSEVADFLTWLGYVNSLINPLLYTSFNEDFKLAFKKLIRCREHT
T3 sequence (P35367 whole entry): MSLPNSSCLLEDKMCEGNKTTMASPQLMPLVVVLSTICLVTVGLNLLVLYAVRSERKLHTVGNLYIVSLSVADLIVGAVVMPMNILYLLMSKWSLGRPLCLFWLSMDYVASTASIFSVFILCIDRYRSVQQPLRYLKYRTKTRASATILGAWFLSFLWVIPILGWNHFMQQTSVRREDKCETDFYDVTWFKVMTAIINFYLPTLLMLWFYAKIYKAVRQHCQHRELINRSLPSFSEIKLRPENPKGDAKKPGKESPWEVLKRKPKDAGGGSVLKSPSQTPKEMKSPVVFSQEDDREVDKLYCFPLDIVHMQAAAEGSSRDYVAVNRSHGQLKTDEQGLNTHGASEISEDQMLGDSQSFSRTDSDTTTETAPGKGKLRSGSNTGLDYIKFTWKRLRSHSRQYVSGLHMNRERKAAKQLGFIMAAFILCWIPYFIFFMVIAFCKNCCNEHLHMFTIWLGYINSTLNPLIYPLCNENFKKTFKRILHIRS

SMILES: Clc1ccc2c(c1)N=C(N1CCNCC1)c1ccccc1N2 [NDMC, 8-chloro-11-(1-piperazinyl)-5H-dibenzo[b,e][1,4]diazepine]
- R-SAT Eff(%) (D2 receptors [1]): 33 ± 2%
- EC50 (D2 receptors [1]; Table 2, negative logarithm of EC50 in molar, NIH3T3 cells, mean ± SEM, read-out: R-SAT pEC50 (converted)): 0.0126 µM
- EC50 (D2 receptors [2]; negative logarithm of EC50 in molar, HEK293T membranes, mean ± SEM, read-out: GTPγS pEC50 (converted)): 0.0398 µM
- GTPγS Eff % (D2 receptors [2]; [8]): 18 ± 1%
- agonist profile in BRET2 assays at D2 receptors (D2 receptors [3]): no agonist activity
- BRET2 Eff % (D2 receptors [3]; [8]): 0 ± 0%

SMILES: CCCN1CCCC(c2cccc(O)c2)C1 (single isomer, unassigned; (-)) [(−)-3-PPP, [3-(3-hydroxyphenyl)-N-n-propyl]piperidine]
- R-SAT Eff(%) (D2 receptors [1]; [9]): 77% and 77 ± 4%
- agonist profile in GTPγS binding assays at D2 receptors (D2 receptors [2]): strong partial agonists
- GTPγS Eff % (D2 receptors [2]; [8]): 77 ± 4%
- R-SAT Eff(%) (human 5-HT2A receptors [4]): 47 ± 12%
- EC50 (human 5-HT2A receptors [4]; [10]): 3.98e-06 M
- PI Hydrolysis Eff (%) (human 5-HT2A receptors [5]; [11]): 5 — %
- BRET2 Eff % (D2 receptors [3]; [8]): 2% and 2 ± 0%
- BRET2 Eff % (human 5-HT2A receptors [6]; [11]): 10 ± 4%

SMILES: O=C(CCCN1CCC(O)(c2ccc(Cl)cc2)CC1)c1ccc(F)cc1 [haloperidol]
- antagonism of motor stimulation induced by (+)-OSU6162 250 μmol/kg ip ([7]; reserpine-pretreated mice): None of the dopaminergic antagonists, i e SCH23390 (0.3 mg/kg), raclopride (20 mg/kg) or haloperidol (1 mg/kg), could antagonize
- antagonism of motor stimulation induced by (−)-OSU6162 250 μmol/kg ip ([7]; reserpine-pretreated mice): could not antagonize
- antagonism of locomotor stimulation induced by (+)-OSU6162 50 μmol/kg sc (habituated rats; [12]): effectively antagonized the locomotor stimulation
- antagonism of locomotor stimulation induced by (−)-OSU6162 50 μmol/kg sc (habituated rats; [12]): effectively antagonized the locomotor stimulation

SMILES: CCCN[C@H]1CCc2nc(N)sc2C1 [Pramipexole, (6S)—N^6-propyl-4,5,6,7-tetrahydro-1,3-benzothiazole-2,6-diamine]
- R-SAT Eff(%) (D2 receptors [1]): 84 ± 9%
- GTPγS Eff % (D2 receptors [2]): 87 ± 6%
- R-SAT Eff(%) (human 5-HT2A receptors [4]): 48 ± 9%
- BRET2 Eff % (D2 receptors [3]): 104 ± 1%
- agonist profile in BRET2 assays at D2 receptors (D2 receptors [3]): full agonist
- BRET2 Eff % (human 5-HT2A receptors [6]): 52 ± 3%

SMILES: CN1CCc2cc(Cl)c(O)cc2[C@H]2c3ccccc3CC[C@@H]21 [SCH39166]
- antagonism of motor stimulation induced by (+)-OSU6162 250 μmol/kg ip ([7]; reserpine-pretreated mice): did not significantly influence the motor activation
- antagonism of motor stimulation induced by (−)-OSU6162 250 μmol/kg ip ([7]; reserpine-pretreated mice): did not significantly influence the motor activation

SMILES: CCN(CC)C(=O)N[C@H]1C[C@@H]2c3cccc4[nH]cc(c34)C[C@H]2N(C)C1 [(+)-Terguride]
- R-SAT Eff(%) (D2 receptors [1]): 92 ± 20%
- R-SAT pEC50 (D2 receptors [1]; Table 2, negative logarithm of EC50 in molar, NIH3T3 cells, mean ± SEM): 11.1 ± 0.2
- GTPγS pEC50 (D2 receptors [2]): 9.3 ± 0.2
- agonist profile in GTPγS binding assays at D2 receptors (D2 receptors [2]): strong partial agonists
- GTPγS Eff % (D2 receptors [2]; [8]): 88 ± 8%
- R-SAT pEC50 (human 5-HT2A receptors [4]; [10]): 9.8 ± 0.9
- R-SAT Eff(%) (human 5-HT2A receptors [4]; Table 1, percent response of reference ligand 5-CT, mean ± SEM): 89 ± 13%
- PI Hydrolysis pEC50 (human 5-HT2A receptors [5]; [13]): 9.1 ± 0.2
- PI Hydrolysis Eff (%) (human 5-HT2A receptors [5]; [11]): 52 ± 8%
- BRET2 pEC50 (D2 receptors [3]; negative logarithm of EC50 in molar, HEK293T cells, mean ± SEM): 7.2 ± 0.1
- BRET2 Eff % (D2 receptors [3]; [8]): 8 ± 1%
- BRET2 Eff % (D2 receptors [3]; percent response of reference ligand dopamine, mean ± SEM, listed as (+)-terguride): 8%
- BRET2 pEC50 (human 5-HT2A receptors [6]; [13]): 7.0 ± 0.0
- BRET2 Eff % (human 5-HT2A receptors [6]; [11]): 42 ± 2%

SMILES: NCCc1c[nH]c2ccc(O)cc12 [5-HT, 5-hydroxytryptamine]
- PI Hydrolysis Eff (%) (human 5-HT2A receptors [5]): 100 ± 0%
- BRET2 Eff % (human 5-HT2A receptors [6]): 100 ± 5%

SMILES: NCCc1c[nH]cn1 [Histamine, reference compound]
- Eff (%) (human H1 receptor): 100%

SMILES: CN1CCC(c2c[nH]c3ccc(O)cc23)CC1 [BRL 54443, reference compound]
- pEC50 (human 5-HT1E receptor; [14]): 6.7
- Eff (%) (human 5-HT1E receptor; [15]): 100%
- pEC50 (human 5-HT1F receptor; [14]): 6.8
- Eff (%) (human 5-HT1F receptor; [15]): 100%

SMILES: COc1cccc([C@H](O)C2CCN(CCc3ccc(F)cc3)CC2)c1OC [M100907, (+)-(R)-1-[1-[2-(4-fluorophenyl)ethyl]piperidin-4-yl]-1-(2,3-dimethoxyphenyl)methanol]
- effect of three doses on motor activity increase caused by 250 μmol/kg of (−)-OSU6162 ([7]; reserpine-pretreated mice, M100907 0.01, 0.1, 1 mg/kg ip 30 minutes prior): Only the 1 mg/kg dose significantly decreased motor activity
- antagonism of locomotor stimulation induced by DOI 2.5 mg/kg ([7]; reserpine-pretreated mice, M100907 0.01, 0.1, 1 mg/kg ip 30 minutes prior, all doses significant): highly effective in antagonizing the locomotor stimulant effects of 2.5 mg/kg of DOI
- reversal of locomotor stimulation induced by 125 μmol/kg of (+)-OSU6162 [7, 16]: effectively reversed
- reversal of locomotor stimulation induced by 125 μmol/kg of (−)-OSU6162 [7, 16]: effectively reversed
- antagonism of motor stimulation induced by (+)-OSU6162 250 μmol/kg ip ([7]; reserpine-pretreated mice): effectively antagonized this response
- antagonism of motor stimulation induced by (−)-OSU6162 250 μmol/kg ip ([7]; reserpine-pretreated mice): effectively antagonized
- reversal of (−)-OSU6162-induced locomotor stimulation (habituated rats; M100907 1 mg/kg ip, 15-35 minute interval): significant reversal
- counteraction of locomotor stimulation induced by (+)-OSU6162 50 μmol/kg sc (habituated rats; M100907 0.5 and 1 mg/kg ip, 5-35 minute interval): significantly counteracted

SMILES: CCN1CCC[C@H]1CNC(=O)c1c(O)c(Cl)cc(Cl)c1OC [raclopride]
- antagonism of motor stimulation induced by (+)-OSU6162 250 μmol/kg ip ([7]; reserpine-pretreated mice): None of the dopaminergic antagonists, i e SCH23390 (0.3 mg/kg), raclopride (20 mg/kg) or haloperidol (1 mg/kg), could antagonize
- antagonism of motor stimulation induced by (−)-OSU6162 250 μmol/kg ip ([7]; reserpine-pretreated mice): could not antagonize

SMILES: CCCN1CCCC(c2cccc(O)c2)C1 (single isomer, unassigned; (+)) [(+)-3-PPP, [3-(3-hydroxyphenyl)-N-n-propyl]piperidine]
- R-SAT Eff(%) (D2 receptors [1]; [9]): 101 ± 8%
- agonist profile in GTPγS binding assays at D2 receptors (D2 receptors [2]): full agonist
- GTPγS Eff % (D2 receptors [2]; [8]): 102 ± 4%
- R-SAT Eff(%) (human 5-HT2A receptors [4]): 87 ± 26%
- EC50 (human 5-HT2A receptors [4]; [10]): 6.31e-06 M
- EC50 (human 5-HT2A receptors [5]; negative logarithm of EC50 in molar (M), HEK 293T cells, mean ± SEM, read-out: PI Hydrolysis pEC50 (converted)): > 1e-05 M
- PI Hydrolysis Eff (%) (human 5-HT2A receptors [5]; [11]): 17 — %
- agonist profile in BRET2 assays at D2 receptors (D2 receptors [3]): partial agonists
- BRET2 Eff % (D2 receptors [3]; [8]): 58 ± 2%
- EC50 (human 5-HT2A receptors [6]; negative logarithm of EC50 in molar (M), HEK 293T cells, mean ± SEM, read-out: BRET2 pEC50 (converted)): > 0.0001 M
- BRET2 Eff % (human 5-HT2A receptors [6]; [11]): 42 ± 5%

SMILES: COc1cc(CC(C)N)c(OC)cc1I.Cl (racemic) [DOI, (±)-1-(2,5-dimethoxy-4-iodophenyl)-2-aminopropane hydrochloride, reference compound]
- head twitches produced during 5 minutes (drug naive mice): induces head twitches in the mouse
- motor activity (distance moved, DM 1.5) ([7]; reserpine 10 mg/kg ip 20 h prior, test drug ip just prior to recording, first 30 minutes, vs reserpine only group): able to induce locomotor stimulation in reserpine-pretreated mice
